Data as given in paper PMC10156783, “Structural basis for catalysis of human choline/ethanolamine phosphotransferase 1” (Nature Communications, 2023).

Legend:
[1] = target: T1, hCEPT1 (human choline/ethanolamine phosphotransferase 1) (Homo sapiens, UniProt Q9Y6K0); test: isothermal titration calorimetry; cryo-EM structure of the complex; details: read-out: binding affinity
T1 construct: gene CEPT1
T1 sequence (Q9Y6K0 1-416): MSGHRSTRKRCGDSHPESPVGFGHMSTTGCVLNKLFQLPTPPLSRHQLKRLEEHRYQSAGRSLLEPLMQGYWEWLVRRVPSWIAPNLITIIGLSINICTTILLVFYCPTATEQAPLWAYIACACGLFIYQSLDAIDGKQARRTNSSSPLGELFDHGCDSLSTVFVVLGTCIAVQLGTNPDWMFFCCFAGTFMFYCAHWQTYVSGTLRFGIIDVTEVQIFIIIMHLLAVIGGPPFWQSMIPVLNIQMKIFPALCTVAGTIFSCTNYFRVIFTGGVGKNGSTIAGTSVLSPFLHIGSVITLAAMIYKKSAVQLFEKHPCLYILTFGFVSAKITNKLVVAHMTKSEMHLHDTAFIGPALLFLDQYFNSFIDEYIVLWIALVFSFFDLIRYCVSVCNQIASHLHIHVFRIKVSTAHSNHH

[2] = target: T1, hCEPT1 (human choline/ethanolamine phosphotransferase 1); details: co-substrate diacylglycerol in cholate/POPC micelles; Mg2+ 20 mM; pH 8.0; 37 °C
[3] = target: the molecule itself; test: cryo-EM structure; purified CEPT1 at about 15 mg/ml in 25 mM Tris pH 8.0, 150 mM NaCl, 0.005% GDN; alone (3.7 Å) and with 10 mM CDP-choline (3.8 Å); C2 symmetry applied, a similar map with C1

C[N+](C)(C)CCOP(=O)(O)OP(=O)([O-])OC[C@H]1O[C@@H](n2ccc(N)nc2=O)[C@H](O)[C@@H]1O [CDP-choline]
Kd [1]: 46 µM

NCCOP(=O)(O)OP(=O)(O)OC[C@H]1O[C@@H](n2ccc(N)nc2=O)[C@H](O)[C@@H]1O [CDP-ethanolamine]
HPLC assay of CMP release [2]: CMP release was approximately doubled when CDP-choline was used as the substrate compared with CDP-ethanolamine

B1: human choline/ethanolamine phosphotransferase 1 (CEPT1), full length (enzyme, UniProt Q9Y6K0 1-416, looked up)
chain: MSGHRSTRKRCGDSHPESPVGFGHMSTTGCVLNKLFQLPTPPLSRHQLKRLEEHRYQSAGRSLLEPLMQGYWEWLVRRVPSWIAPNLITIIGLSINICTTILLVFYCPTATEQAPLWAYIACACGLFIYQSLDAIDGKQARRTNSSSPLGELFDHGCDSLSTVFVVLGTCIAVQLGTNPDWMFFCCFAGTFMFYCAHWQTYVSGTLRFGIIDVTEVQIFIIIMHLLAVIGGPPFWQSMIPVLNIQMKIFPALCTVAGTIFSCTNYFRVIFTGGVGKNGSTIAGTSVLSPFLHIGSVITLAAMIYKKSAVQLFEKHPCLYILTFGFVSAKITNKLVVAHMTKSEMHLHDTAFIGPALLFLDQYFNSFIDEYIVLWIALVFSFFDLIRYCVSVCNQIASHLHIHVFRIKVSTAHSNHH
notes: residues 28-407 modelled in each protomer; Homodimer in the cryo-EM structures; membrane protein in GDN detergent; No removal of the tags is described; also called hCEPT1; CEPT1-A; source: FreeStyle 293-F suspension cells, transiently transfected, purified (anti-FLAG M2 resin, NTA resin, SEC in 0.005% GDN)
stoichiometry N [3]: 2
